Laboratory results taken from patent US20210308102A1 (priority 2018, published 2021).

Legend:
Details in all cases: human, in vivo
Presbyopic subjects [1] = test system: Presbyopic subjects
Presbyopic subjects [2] = test system: Presbyopic subjects; remark: listed apart in the source
Presbyopic subjects [3] = test system: Presbyopic subjects; remark: listed apart in the source

CN(C)C(=O)Oc1cccc([N+](C)(C)C)c1 [compound 1, neostigmine]
share of the subjects with no tolerance problems (Presbyopic subjects [1]): One third
time until symptoms gradually alleviated (Presbyopic subjects [1]): 30 min

CNC(=O)Oc1ccc2c(c1)[C@]1(C)CCN(C)[C@@H]1N2C [compound 2, physostigmine]
improvement of distance corrected near visual acuity, 0.25% eye drops compared with 1.5% eye drops (Presbyopic subjects [2]): more than 1.5% compound 2 eye drops
duration of eye twitching (Presbyopic subjects [1]): 15 min
duration of eyelid and eyeball twitching (Presbyopic subjects [1]): 15 min
duration of headache (Presbyopic subjects [1]): 1 to 2 h
duration of slightly inflexible eye mobility (Presbyopic subjects [1]): 3 to 4 h
onset of eye twitching (Presbyopic subjects [1]): 15 min
onset of eyelid and eyeball twitching (Presbyopic subjects [1]): 15 min
time until eye irritation disappeared (Presbyopic subjects [1]): 10 min
upper eyelid and eyeball adherence and mobility (Presbyopic subjects [1]): The upper eyelid and the eyeball were adhered tightly, and the mobility of the upper eyelid and eyeball was slightly weakened
effect on miosis, 0.25% eye drops compared with 1.5% eye drops (Presbyopic subjects [3]): more than 1.5% compound 2 eye drops
time at which efficacy reached the highest level (Presbyopic subjects [3]): 2 h
time at which efficacy was still present (Presbyopic subjects [3]): ≥ 6 h

CN(CCCCCCCCCCN(C)C(=O)Oc1cccc([N+](C)(C)C)c1)C(=O)Oc1cccc([N+](C)(C)C)c1 [compound 3, Demecarium bromide]
duration of eye discomfort and conjunctival congestion (Presbyopic subjects [1]): 2 to 3 days
ocular tolerance (Presbyopic subjects [1]): Half of the subjects began to suffer from eye discomfort and conjunctival congestion after several hours
share of the subjects with no eye discomfort (Presbyopic subjects [1]): half
